Data from ChEMBL document CHEMBL4428125, “8-Substituted 1,3-dimethyltetrahydropyrazino[2,1-f]purinediones: Water-soluble adenosine receptor antagonists and monoamine oxidase B inhibitors” (Bioorg Med Chem, 2016).

Tests used:
Adenosine receptor A1 = target: T1, Adenosine receptor A1 (Rattus norvegicus, UniProt P25099); assay: Displacement of [3H]CCPA from A1 receptor in rat brain cortex membranes by liquid scintillation counting method; format: cell membranes
T1 sequence (P25099 whole entry): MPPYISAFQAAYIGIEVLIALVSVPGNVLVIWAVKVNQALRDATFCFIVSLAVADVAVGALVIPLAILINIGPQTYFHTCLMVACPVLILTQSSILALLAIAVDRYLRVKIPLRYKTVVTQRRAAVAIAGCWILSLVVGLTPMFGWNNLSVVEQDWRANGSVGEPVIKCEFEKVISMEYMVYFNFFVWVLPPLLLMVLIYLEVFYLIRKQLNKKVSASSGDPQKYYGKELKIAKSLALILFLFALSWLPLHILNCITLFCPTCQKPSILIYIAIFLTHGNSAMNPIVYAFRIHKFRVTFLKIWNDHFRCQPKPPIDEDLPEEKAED

[1] = target: T2, Adenosine receptor A1 (Rattus norvegicus) (UniProt P25099); assay: Displacement of [3H]CCPA from A1 receptor in rat brain cortex membranes at 1.5 uM by liquid scintillation counting method; format: cell membranes
T2 sequence (whole entry): T1 sequence (P25099 whole entry)

Adenosine receptor A2a = Adenosine receptor A2a (Rattus norvegicus, UniProt P30543); assay: Displacement of [3H]MSX from A2A receptor in rat brain striatum membranes measured after 30 mins by liquid scintillation counting method; format: cell membranes
Sequence of Adenosine receptor A2a (P30543 whole entry): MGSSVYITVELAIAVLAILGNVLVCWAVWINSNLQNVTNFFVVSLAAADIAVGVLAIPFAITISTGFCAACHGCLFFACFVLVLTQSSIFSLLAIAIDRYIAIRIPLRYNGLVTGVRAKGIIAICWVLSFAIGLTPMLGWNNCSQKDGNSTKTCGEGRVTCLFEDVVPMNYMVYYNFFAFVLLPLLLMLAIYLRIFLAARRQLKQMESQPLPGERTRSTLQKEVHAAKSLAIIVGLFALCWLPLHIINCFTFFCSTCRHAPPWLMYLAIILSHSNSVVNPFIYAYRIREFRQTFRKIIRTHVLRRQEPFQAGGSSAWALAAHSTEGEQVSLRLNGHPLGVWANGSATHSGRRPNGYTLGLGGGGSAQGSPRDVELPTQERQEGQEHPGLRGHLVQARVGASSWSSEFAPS

[2] = target: T3, Amine oxidase [flavin-containing] A (Homo sapiens, UniProt P21397); assay: Inhibition of recombinant human MAO-A expressed in baculovirus infected BTI insect cells preincubated for 30 mins followed by addition of p-tyramine as substrate measured over 45 mins by Amplex Red MAO assay
T3 sequence (P21397 whole entry): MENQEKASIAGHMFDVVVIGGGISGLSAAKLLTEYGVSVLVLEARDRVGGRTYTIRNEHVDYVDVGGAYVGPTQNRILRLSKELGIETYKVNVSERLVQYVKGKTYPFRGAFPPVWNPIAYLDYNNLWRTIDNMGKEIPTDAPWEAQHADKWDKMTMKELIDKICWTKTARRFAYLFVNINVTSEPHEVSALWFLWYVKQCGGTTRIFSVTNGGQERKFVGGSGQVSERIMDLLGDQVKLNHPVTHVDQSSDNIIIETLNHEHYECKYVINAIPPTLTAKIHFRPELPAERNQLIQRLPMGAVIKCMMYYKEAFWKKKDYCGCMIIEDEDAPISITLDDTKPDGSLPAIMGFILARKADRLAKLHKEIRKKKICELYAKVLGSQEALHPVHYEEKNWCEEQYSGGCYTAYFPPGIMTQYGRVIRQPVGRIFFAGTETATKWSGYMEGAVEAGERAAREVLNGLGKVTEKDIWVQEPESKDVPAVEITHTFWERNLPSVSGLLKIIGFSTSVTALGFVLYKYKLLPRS

[3] = target: T3, Amine oxidase [flavin-containing] A; assay: Inhibition of recombinant human MAO-A expressed in baculovirus infected BTI insect cells at 10 uM preincubated for 30 mins followed by addition of p-tyramine as substrate measured over 45 mins by Amplex Red MAO assay relative to control; settings: 0.75 h
[4] = target: T4, Amine oxidase [flavin-containing] B (Homo sapiens, UniProt P27338); assay: Inhibition of recombinant human MAO-B expressed in baculovirus infected BTI insect cells preincubated for 30 mins followed by addition of p-tyramine as substrate measured over 45 mins by Amplex Red MAO assay
T4 sequence (P27338 whole entry): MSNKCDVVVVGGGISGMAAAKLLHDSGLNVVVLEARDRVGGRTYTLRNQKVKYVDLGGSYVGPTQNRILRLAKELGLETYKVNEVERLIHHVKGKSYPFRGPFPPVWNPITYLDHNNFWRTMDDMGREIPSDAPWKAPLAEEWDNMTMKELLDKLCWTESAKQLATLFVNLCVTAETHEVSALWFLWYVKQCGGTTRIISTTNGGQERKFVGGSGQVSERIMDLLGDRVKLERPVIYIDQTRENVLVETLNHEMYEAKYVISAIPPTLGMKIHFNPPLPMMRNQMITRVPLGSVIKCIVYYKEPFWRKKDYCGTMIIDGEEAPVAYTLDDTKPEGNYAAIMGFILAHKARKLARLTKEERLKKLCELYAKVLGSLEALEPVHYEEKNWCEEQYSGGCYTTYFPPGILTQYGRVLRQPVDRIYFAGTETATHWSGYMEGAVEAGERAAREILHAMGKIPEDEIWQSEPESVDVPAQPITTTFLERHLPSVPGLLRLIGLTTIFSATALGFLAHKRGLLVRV

Adenosine receptor A2b = target: T5, Adenosine receptor A2b (Homo sapiens, UniProt P29275); assay: Displacement of [3H]PSB-603 from human A2B receptor expressed in CHO cell membrane; format: cell membranes
T5 sequence (P29275 whole entry): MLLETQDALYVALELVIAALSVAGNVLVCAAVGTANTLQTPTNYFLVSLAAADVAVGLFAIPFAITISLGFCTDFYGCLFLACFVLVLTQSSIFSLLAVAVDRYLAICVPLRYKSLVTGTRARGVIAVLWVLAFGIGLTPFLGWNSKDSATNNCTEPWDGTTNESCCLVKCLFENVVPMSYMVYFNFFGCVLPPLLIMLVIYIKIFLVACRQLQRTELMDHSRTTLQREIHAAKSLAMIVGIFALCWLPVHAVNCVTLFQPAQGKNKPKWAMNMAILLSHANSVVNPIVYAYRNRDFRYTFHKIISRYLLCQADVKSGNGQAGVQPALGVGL

[5] = target: T6, Adenosine receptor A2b (Homo sapiens) (UniProt P29275); assay: Displacement of [3H]PSB-603 from human A2B receptor expressed in CHO cell membrane at 1 uM relative to control; format: cell membranes
T6 sequence (whole entry): T5 sequence (P29275 whole entry)

Adenosine receptor A3 = target: T7, Adenosine receptor A3 (Homo sapiens, UniProt P0DMS8); assay: Displacement of [3H]PSB-11 from human A3 receptor expressed in CHO cell membrane by liquid scintillation counting method relative to control; format: cell membranes
T7 sequence (P0DMS8 whole entry): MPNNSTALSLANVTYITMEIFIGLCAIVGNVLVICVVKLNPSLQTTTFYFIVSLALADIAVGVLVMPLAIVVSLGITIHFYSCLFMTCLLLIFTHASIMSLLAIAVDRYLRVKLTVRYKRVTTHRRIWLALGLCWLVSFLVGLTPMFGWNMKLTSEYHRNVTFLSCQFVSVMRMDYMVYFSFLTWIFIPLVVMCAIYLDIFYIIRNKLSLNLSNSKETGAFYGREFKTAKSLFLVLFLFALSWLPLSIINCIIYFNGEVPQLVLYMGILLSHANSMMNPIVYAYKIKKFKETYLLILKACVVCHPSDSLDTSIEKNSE

[6] = target: T8, Adenosine receptor A3 (Homo sapiens) (UniProt P0DMS8); assay: Displacement of [3H]PSB-11 from human A3 receptor expressed in CHO cell membrane at 10 uM by liquid scintillation counting method relative to control relative to control; format: cell membranes
T8 sequence (whole entry): T7 sequence (P0DMS8 whole entry)

[7] = target: T4, Amine oxidase [flavin-containing] B; assay: Inhibition of recombinant human MAO-B expressed in baculovirus infected BTI insect cells at 10 uM preincubated for 30 mins followed by addition of p-tyramine as substrate measured over 45 mins by Amplex Red MAO assay relative to control; settings: 0.75 h

| SMILES | Ki (Adenosine receptor A1) | Activity [1] | Ki (Adenosine receptor A2a) | IC50 [2] | inhibition at 10 µM [3] | IC50 [4] | Ki (Adenosine receptor A2b) | Activity [5] | Ki (Adenosine receptor A3) | Activity [6] | inhibition at 10 µM [7] |
| --- | --- | --- | --- | --- | --- | --- | --- | --- | --- | --- | --- |
| Cn1c(=O)c2c(nc3n2CCN(c2cccc(F)c2)C3)n(C)c1=O | > 1500 nM | 20% | 2920 nM | > 10000 nM | 8% | 1500 nM | > 1000 nM | 3% | > 10000 nM | 18% |  |
| Cn1c(=O)c2c(nc3n2CCN(c2cccc4ccccc24)C3)n(C)c1=O | > 1500 nM | 17% | 2940 nM | > 10000 nM | 16% | 828 nM | > 1000 nM | 10% | > 10000 nM | 29% |  |
| Cn1c(=O)c2c(nc3n2CCN(c2ccc(F)cc2)C3)n(C)c1=O | > 1500 nM | 4% | 2130 nM |  |  | 2230 nM | > 1000 nM | 9% | > 10000 nM | 24% |  |
| Cn1c(=O)c2c(nc3n2CCN([C@@H]2CCc4ccccc42)C3)n(C)c1=O | > 1500 nM | 28% | 5080 nM |  |  | 2150 nM | > 1000 nM | 8% | > 10000 nM | 38% |  |
| Cn1c(=O)c2c(nc3n2CCN(CCc2ccc(Cl)c(Cl)c2)C3)n(C)c1=O | > 1500 nM | 35% | 2850 nM | > 10000 nM | 14% | 802 nM | > 1000 nM | 11% | 15000 nM |  |  |

Other lines, results leading:

| Ki (Adenosine receptor A1) | Activity [1] | Ki (Adenosine receptor A2a) | IC50 [2] | inhibition at 10 µM [3] | IC50 [4] | Ki (Adenosine receptor A2b) | Activity [5] | Ki (Adenosine receptor A3) | Activity [6] | inhibition at 10 µM [7] | SMILES |
| --- | --- | --- | --- | --- | --- | --- | --- | --- | --- | --- | --- |
| > 1500 nM | 16% | 1010 nM | > 10000 nM | 3% | 1160 nM | > 1000 nM | 21% | > 10000 nM | 32% |  | COc1cccc(N2CCn3c(nc4c3c(=O)n(C)c(=O)n4C)C2)c1 |
| > 1500 nM | 32% | 2730 nM | > 10000 nM | 11% | 723 nM | > 1000 nM | 13% | > 10000 nM | 43% |  | Cn1c(=O)c2c(nc3n2CCN(CCc2ccccc2Cl)C3)n(C)c1=O |
| > 1500 nM | 34% | 3050 nM |  |  | 932 nM | > 1000 nM | 22% | > 10000 nM | 10% |  | Cn1c(=O)c2c(nc3n2CCN(CCc2c(Cl)cccc2Cl)C3)n(C)c1=O |
| > 1500 nM | 12% | 3830 nM | > 10000 nM | -1% |  | > 1000 nM | 8% | > 10000 nM | 32% | 61% | Cn1c(=O)c2c(nc3n2CCN(c2ccccc2)C3)n(C)c1=O |
| > 1500 nM | 14% | 1310 nM | > 10000 nM | 13% |  | > 1000 nM | 21% | > 10000 nM | 10% | 61% | Cn1c(=O)c2c(nc3n2CCN(CCc2cccc(Cl)c2)C3)n(C)c1=O |
| > 1500 nM | 9% | 9610 nM | > 10000 nM | -12% | > 10000 nM | > 1000 nM | 11% | > 10000 nM | 43% | 39% | Cn1c(=O)c2c(nc3n2CCN(CCc2ccccc2)C3)n(C)c1=O |
| > 1500 nM | 6% | 2580 nM |  |  | 10000 nM | > 1000 nM | 12% | > 10000 nM | 29% | 63% | Cn1c(=O)c2c(nc3n2CCN(CCc2cccc(C(F)(F)F)c2)C3)n(C)c1=O |
| 1250 nM |  | 2420 nM | > 10000 nM | 14% | > 10000 nM | > 1000 nM | 21% | > 10000 nM | 36% | 27% | Cn1c(=O)c2c(nc3n2CCN(CCOc2ccc(Cl)c(Cl)c2)C3)n(C)c1=O |
